Assay results as given in paper PMC8344252, “Carbonic anhydrase activation profile of indole-based derivatives” (Journal of Enzyme Inhibition and Medicinal Chemistry, 2021).

Legend:
hCA I = hCA I (Homo sapiens, UniProt P00915); assay: CA activation, stopped-flow CO2 hydrase assay; assay type: biochemical; details: activation constant; mean from 3 assays, errors ±5–10%
Experimental: (§1) A stopped-flow method[38] has been used for assaying the CA catalysed CO2 hydration activity with Phenol red as indicator, working at the absorbance maximum of 557 nm, following the initial rates of the CA-catalysed CO2 hydration reaction for 10–100 s. For each activator, at least six traces of the initial 5–10% of the reaction have been used for determining the initial velocity. The uncatalyzed rates were determined in the same manner and subtracted from the total observed rates. Stock solutions of activator (0.1 mM) were prepared in distilled-deionized water and dilutions up to 0.1 nM were done thereafter with the assay buffer. The activation constant (KA), defined similarly with the inhibition constant (KI), was obtained by considering the classical Michaelis–Menten equation (Equation (3), which has been fitted by nonlinear least squares by using PRISM 3: v=vmax/{1+KM/[S](1+[A]f/KA)} (3) [drawing 4] where [A]f is the free concentration of activator.
(§2) Working at substrate concentrations considerably lower than KM ([S]≪KM), and considering that [A]f can be represented in the form of the total concentration of the enzyme ([E]t) and activator ([A]t), the obtained competitive steady-state equation for determining the activation constant is given by Equation 4: v=v0KA/{KA+[A]t–0.5{([A]t+[E]t+ KA)–([A]t+[E]t+ KA)^2–4[A]t[E]t^1/2}} (4) [drawing 5] where v0 represents the initial velocity of the enzyme-catalysed reaction in the absence of an activator[39–42]. Enzyme concentrations in the assay system were in the range of 6.5–12.0 nM.

hCA II = hCA II (Homo sapiens, UniProt P00918); assay: CA activation, stopped-flow CO2 hydrase assay; assay type: biochemical; details: for KA ratio [hCA II/hCA VII]: KA ratio for the indicated enzyme isoforms, value in square brackets; for KA hCA II: activation constant, mean from 3 assays, errors ±5–10%
Experimental: as §1, §2

hCA VA = hCA VA (Homo sapiens, UniProt P35218); assay: CA activation, stopped-flow CO2 hydrase assay; assay type: biochemical; details: for KA ratio [hCA VA/hCA VII]: KA ratio for the indicated enzyme isoforms, value in square brackets; for KA hCA VA: activation constant, mean from 3 assays, errors ±5–10%; for hCA VA activation, judged in words: text comment on KA values
hCA VA, sequence (P35218 39-305): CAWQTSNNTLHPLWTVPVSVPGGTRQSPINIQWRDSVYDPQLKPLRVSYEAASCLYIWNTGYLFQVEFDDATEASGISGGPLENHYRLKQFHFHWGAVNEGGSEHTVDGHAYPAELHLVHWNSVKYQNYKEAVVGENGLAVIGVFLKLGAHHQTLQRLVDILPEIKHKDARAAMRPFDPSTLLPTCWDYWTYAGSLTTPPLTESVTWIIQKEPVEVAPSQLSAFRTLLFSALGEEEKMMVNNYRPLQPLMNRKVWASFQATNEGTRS
Experimental: as §1, §2

hCA VII = hCA VII (Homo sapiens, UniProt P43166); assay: CA activation, stopped-flow CO2 hydrase assay; assay type: biochemical; details: activation constant; mean from 3 assays, errors ±5–10%
hCA VII, sequence (P43166 whole entry): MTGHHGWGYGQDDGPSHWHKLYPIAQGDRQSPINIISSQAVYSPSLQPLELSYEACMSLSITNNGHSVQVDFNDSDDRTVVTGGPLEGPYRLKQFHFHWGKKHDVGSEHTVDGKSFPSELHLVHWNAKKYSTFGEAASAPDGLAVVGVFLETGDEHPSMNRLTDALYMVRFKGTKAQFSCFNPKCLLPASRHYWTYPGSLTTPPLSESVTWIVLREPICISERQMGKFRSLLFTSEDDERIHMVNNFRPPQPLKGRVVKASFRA
Experimental: as §1, §2

[1] = system: C20 human microglial cell line; assay: Cell viability (MTS) assay; assay type: cell-based; details: 24 h; for Cell viability of C20 cells: highest tested concentration (10 µM), vs vehicle (DMSO) control
Experimental: (§3) All materials for cell culturing were obtained by Corning, New York, USA, and all used reagents were purchased by Sigma-Aldrich (Saint Louis, MO, USA). The human microglial cell line C20, originally generated by David Alvarez-Carbonell et al.[52], was grown in DMEM-F12 medium supplemented with 10% of FBS, 100 U/mL penicillin, 0.1 mg/mL streptomycin, and neomycin (600 μg/mL), as a selector of the immortalised telomerase-expressing cells. Cells were kept at 37 °C under a humidified atmosphere with […] and 5% CO2. Viable cells (identified by counting trypan-blue-excluding cellular elements) were plated at a density of 100,000 cells each well in a 24-well plate. To evaluate the ability of target compounds to modulate the cellular viability and brain-derived neurotrophic factor (BDNF) release, C20 cells were challenged with CAAs.
C20 cells were seeded in 96-well microplates at a density of 5000 cells/well and maintained in complete culture media. The day after the seed, cells were treated with CAAs 7, 8, and 9 for 24 h (1 and 10 µM). The cell viability was determined using the [3–(4,5-dimethylthiazol-2-yl)-5–(3-carboxymethoxyphenol)-2–(4-sulfophenyl)-2H-tetrazolium, inner salt] (MTS) assay according to the manufacturer’s instructions (Promega, Milano, Italy). This tetrazolium dye can be reduced by the metabolic reducing agents NADH and NADPH to a water-soluble formazan salt. The amount of formazan produced is considered to be a marker of cell viability. The MTS reagent was added to treated C20 cells and the colorimetric conversion of formazane was quantified after 1 h by measuring the absorbance at 490 nm (EnSightTM multimode plate reader, equipped with Kaleido Data Acquisition and Analysis Software).

[2] = system: BDNF release from C20 human microglial cells; assay: BDNF enzyme-linked immunosorbent assay on conditioned medium; assay type: cell-based; details: 10 µM, 2 h treatment, medium collected after 24 h, ELISA, normalised on crystal violet
Experimental: as §3, with “To evaluate the ability of target compounds to modulate the cellular viability and brain-derived neurotrophic factor (BDNF) release, C20 cells were challenged with CAAs.” left out
C20 cells were seeded in 24-well microplates at a density of 100,000 cells/well and maintained in complete culture media. […] At the end of the 24 h, the levels of BDNF were measured in the C20 conditioned medium using an enzyme-linked immunosorbent assay (ELISA) Kit (SEA011Mi 96 Tests, Cloude-Clone Corp., CCC, USA), accordingly to manufacture instructions. […] The enzyme-substrate reaction was terminated by the addition of sulphuric acid solution and the colour change was measured spectrophotometrically at a wavelength of 450 nm ± 10 nm. The concentration of BDNF in the samples was then determined by comparing the O.D. of the samples to the standard curve. […]

hCA I, sequence (P00915 whole entry): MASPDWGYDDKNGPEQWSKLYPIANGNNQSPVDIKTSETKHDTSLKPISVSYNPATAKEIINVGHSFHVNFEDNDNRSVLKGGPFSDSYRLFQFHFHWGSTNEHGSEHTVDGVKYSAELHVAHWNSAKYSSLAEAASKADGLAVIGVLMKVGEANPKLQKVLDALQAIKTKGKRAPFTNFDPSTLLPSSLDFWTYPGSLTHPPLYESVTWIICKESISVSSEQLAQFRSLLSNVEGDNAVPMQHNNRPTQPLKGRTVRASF

Row | Compound | KA hCA I (hCA I) [µM] | KA ratio [hCA II/hCA VII] (hCA II) | KA hCA II (hCA II) [µM] | KA ratio [hCA VA/hCA VII] (hCA VA) | KA hCA VA (hCA VA) [µM] | KA hCA VII (hCA VII) [µM] | hCA VA activation, judged in words (hCA VA) | Cell viability of C20 cells [1] | melting point [°C] | Cytotoxic activity on C20 cells ([1]; 1 and 10 µM, any of the tested concentrations) | BDNF levels in medium of C20 cells [2]
1 | CN(C)CCCOc1ccc2c(c1)c(C(=O)NCCO)cn2Cc1ccccc1 [Compound 5, 5-(3-(Dimethylamino)propoxy)-1-benzyl-N-(2-hydroxyethyl)-1H-indole-3-carboxamide] | > 100 | > 9.6 | > 100 | 2.7 | 28.0 | 10.4 | – | – | – | – | –
2 | CCOC(=O)c1cn(Cc2ccccc2)c2ccc(OCCCN(C)C)cc12 [Compound 8, Ethyl 5-(3-(dimethylamino)propoxy)-1-benzyl-1H-indole-3-carboxylate] | 69.1 | > 13.9 | > 100 | 8.3 | 59.8 | 7.2 | poor activity | slight, although not statistically significant, reduction in cell viability | 58 to 60 | – | –
3 | NCCc1c[nH]cn1 [Histamine, reference compound] | 2.1 | – | 125 | – | 0.010 | 37.5 | – | – | – | – | –
4 | CCN(CC)CCOc1ccc2c(c1)c(C(=O)NCc1ccccc1)cn2Cc1ccccc1 [Compound 7, 5-(2-(Diethylamino)ethoxy)-N,1-dibenzyl-1H-indole-3-carboxamide] | > 100 | > 13.3 | > 100 | 3.2 | 24.4 | 7.5 | – | a little increase in cell viability | 57 to 59 | did not exhibit cytotoxic activity | significant increase in BDNF levels
5 | CN(C)CCCNC(=O)C(=O)c1cn(Cc2ccccc2)c2ccc(OCCO)cc12 [Compound 1, 2-(5-(2-Hydroxyethoxy)-1-benzyl-1H-indol-3-yl)-N-(3-(dimethylamino)propyl)glyoxylamide] | > 100 | > 9.3 | > 100 | 2.3 | 25.0 | 10.8 | – | – | – | – | –
6 | CN(C)CCOc1ccc2c(c1)c(C(=O)NCCO)cn2Cc1ccccc1 [Compound 6, 5-(2-(Dimethylamino)ethoxy)-1-benzyl-N-(2-hydroxyethyl)-1H-indole-3-carboxamide] | > 100 | > 9.3 | > 100 | 2.5 | 26.8 | 10.7 | – | – | – | – | –
7 | CCOC(=O)c1cn(Cc2ccccc2)c2ccc(OCCN(C)C)cc12 [Compound 9, Ethyl 5-(2-(dimethylamino)ethoxy)-1-benzyl-1H-indole-3-carboxylate] | > 100 | > 12.2 | > 100 | 3.5 | 29.1 | 8.2 | – | slight, although not statistically significant, reduction in cell viability | 69 to 71 | – | –
8 | CCN(CC)CCNC(=O)C(=O)c1cn(Cc2ccccc2)c2ccc(OCCO)cc12 [Compound 2, 2-(5-(2-Hydroxyethoxy)-1-benzyl-1H-indol-3-yl)-N-(2-(diethylamino)ethyl)glyoxylamide] | 88.9 | > 10.0 | > 100 | 2.9 | 28.7 | 10.0 | – | – | – | – | –
9 | CCN(CC)CCOc1ccc2c(c1)c(C(=O)C(=O)NCCO)cn2Cc1ccccc1 [Compound 4, 2-(5-(2-(Diethylamino)ethoxy)-1-benzyl-1H-indol-3-yl)-N-(2-hydroxyethyl)glyoxamide] | > 100 | > 11.0 | > 100 | 3.8 | 34.4 | 9.1 | – | – | 116 to 118 | – | –
10 | CN(C)CCCOc1ccc2c(c1)c(C(=O)C(=O)NCCCO)cn2Cc1ccccc1 [Compound 3, 2-(5-(3-(Dimethylamino)propoxy)-1-benzyl-1H-indol-3-yl)-N-(3-hydroxypropyl)glyoxamide] | > 100 | > 9.4 | > 100 | 4.8 | 50.9 | 10.6 | poor activity | – | 111 to 113 | – | –
